Assay results reported in US20260137081A1, “SUBSTITUTED FURANONES AND USE THEREOF FOR AGRICULTURAL APPLICATIONS” (SOUND AGRICULTURE COMPANY, priority 2021, published 2026).

Experiments:
Assay type in all cases: in vivo
corn = assay: Corn field trials, grain yield; conditions: field trials in Illinois and Iowa; applied once in late June; vs untreated control
Procedure: The total amount of Compound 1 applied to each plot ranged from about 5 g/acre to about 20 g/acre.
Corn field trials were performed in Illinois and Iowa. In each trial, individual plots measured 10 feet by 30 feet and each treatment (application of Compound 1 or untreated control) was replicated across 4 plots in a randomized complete block design. Agronomic practices were maintained under standard commercial conditions and products used for weed, insect, and disease control. The Walnut, Illinois trial site was planted in mid-May and harvested in early October. The Richland, Iowa site was planted in late April and harvested in late September. Compound 1 was applied to both sites once in late June. Grain weight and grain moisture were measured for each plot at harvest, data is reported as bushels per acre normalized to 13% moisture content.

corn plants [1] = assay: Chlorophyll fluorescence with LI-COR 6800 after foliar application; conditions: for minimal fluorescence Fo / maximum fluorescence (Fm): dark-adapted; for light-adapted quantum efficiency of PSII (Fv′/Fm′): in comparison to the mock
Procedure: Greenhouse application of Compound 1: Corn plants were grown in a greenhouse for 9 weeks (V5) prior to treatment. […] The foliar blends were prepared by mixing the formula concentrations into water followed by vigorous mixing. To mimic a foliar application in a corn field (using a spray boom), a uniform coating of the entire plant was carried out (FIG. 2) using a hand-held spray bottle. Following application, the plants were separated to avoid cross contamination (aerosol drift) and allowed to dry. Measurement of chlorophyll fluorescence: Chlorophyll fluorescence measurements were determined 4 hrs and 24 hrs after treatment using a LI-COR 6800 fluorimeter (LI-COR Biosciences; Lincoln, Nebraska). Corn plants were dark-adapted 60-90 min prior to measurement and the youngest fully expanded leaf with a fully formed ligule was used for the measurement. Minimal fluorescence levels in the dark (Fo) and light (Fo′) were recorded by applying a measuring light of 12 μmol photons m^−2 s^−1. Maximum fluorescence levels in the dark (Fm) and light (Fm′) were recorded by applying a saturating pulse of light at 10,000 μmol photons m^−2 s^−1. Maximum quantum efficiency of PSII in the dark (Fv/Fm) and light (Fv′/Fm′) were calculated as (Fm−Fo/Fm) using their respective dark or light-adapted values. NPQ induction was measured after a 5 minute exposure to an actinic light source at 1,000 μmol photons m^−2 s^−1 and calculated as (Fm−Fm′/Fm′).

corn plants [2] = assay: Greenhouse foliar application, gas exchange with LI-COR 6800 (carbon assimilation, transpiration, stomatal conductance); conditions: 0.8 fl. oz rate; 2 and 24 hour time points; compared to the mock
Procedure: Greenhouse application of Compound 1: Corn plants were grown in a greenhouse for 9 weeks (V5) prior to treatment. Eight plants were treated with a mock solution (formulation blank), low rate (0.8 fl. oz) or medium rate (1.7 fl. oz). The low rate and medium rate refer to the volume of the Compound 1 containing solution that is applied to 1 acre of corn plants, and roughly equates to 5 grams of Compound 1 per acre for low rate and about 10 grams of Compound 1 per acre for medium rate. The foliar blends were prepared by mixing the formula concentrations into water followed by vigorous mixing. To mimic a foliar application in a corn field (using a spray boom), a uniform coating of the entire plant was carried out (FIG. 2) using a hand-held spray bottle. Following application, the plants were separated to avoid cross contamination (aerosol drift) and allowed to dry. Measurement of carbon assimilation: Assessment of the effects of Compound 1 on photosynthesis in corn plants, tobacco plants, and soybean plants was performed using a LI-COR 6800 fluorimeter, which measured net carbon assimilation (Anet), transpiration (E) and stomatal conductance (gsw). The youngest fully expanded leaf with a fully formed ligule was used from each plant for sampling. A single sample (biological representative) consisted of averaging the readings from three technical representatives adjacent to each other on each sampled leaf. Each treatment consisted of eight biological representatives (N=8). Photobiology measurements were taken at 2 and 24 hour time points, post application.

[3] = tested on: Corn (Syngenta Agrisure Artesian); assay: Cool Grow Procedure Two (foliar spray of DC formulation vs formulation blank)
Procedure: Corn (Syngenta Agrisure Artesian, Basel, Switzerland) seeds (n=2) were planted in 24 four inch pots containing Sunshine soil #1 (Sun Gro, Agawam, MA) mixed with ⅛ tbsp of 14-14-14 osmocote N—P—K (Bloomington Brands LLC, Bloomington, IN) slow-release fertilizer and Micromax (ICL Specialty Fertilizers) (lg/L). Pots were placed on plant holder trays (11×22 in) with three pots per tray and were set-up in a 4×4 ft Cool Grow tent (capacity: 35 one liter pots) with temperature set at 24° C. and light at 345 μmoL for 12 hours day and night. Upon emergence, one seedling was culled leaving only one plant per pot. Plants were fertilized weekly thereafter starting one week after germination with 20-20-20 NPK (1 tsp/gallon) (Bloomington Brands LLC, Bloomington, IN) applied at ˜800-1000 mL per tray.
At V2-3 stage (14 days after seeding), each plant was sprayed with 7.5 mL of the following formulations: formulation blank DC (12 plants total; Agnique® AMD 3L (N,N-dimethyl lactamide)); Compound 1 DC formulation (9.86 μL of DC formulation from Example 5 dissolved in 50 mL of water). After 90 minutes following spray treatment, photosynthetic measurements were made using Licor. Digital biomass and NDVI measurements were made 21 days after seeding by a PlantEye F600Multispectral 3D scanner (Phenospex, Netherlands) and plants were harvested at 27 days after seeding.

SMILES: COC1=C(OC)[C@@H]([C@@H]2COC(C)(C)O2)OC1=O [Compound 1, (5R)-5-(2,2-dimethyl-1,3-dioxolan-4-yl)-3,4-dimethoxyfuran-2(5H)-one]
- Corn yield (corn): Increases
- light-adapted Fm′ (corn plants [1]; 24 hrs post application): not higher
- dark-adapted quantum efficiency of PSII (Fv/Fm) (corn plants [1]; both rates, after 24 hrs): higher
- minimal fluorescence Fo (corn plants [1]; high rate, 4 hrs post foliar application, vs low rate and mock control): lower
- maximum fluorescence (Fm) (corn plants [1]; high rate, both timepoints (4 and 24 hrs)): higher
- minimal fluorescence Fo (corn plants [1]; low and high rates, after 24 hrs, vs mock control): lower compared to the mock control
- maximum fluorescence (Fm) (corn plants [1]; low rate, after 24 hrs): higher
- light-adapted quantum efficiency of PSII (Fv′/Fm′) (corn plants [1]; high rate, 4 hrs post application): higher
- dark-adapted quantum efficiency of PSII (Fv/Fm) (corn plants [1]; high rate, after 4 hrs): higher
- light-adapted quantum efficiency of PSII (Fv′/Fm′) (corn plants [1]; low rate, 24 hrs post application): higher
- light-adapted Fm′ (corn plants [1]; the two rates, 4 hrs post application): similarly higher
- CO2 assimilation (Anet) (corn plants [2]): elevated
- stomatal conductance (gsw) (corn plants [2]): elevated
- transpiration (E) (corn plants [2]): elevated
- NDVI ([3]; 21 days after seeding, formulation blank DC 0.558, p<0.05): 0.569
- mean shoot dry weight ([3]; harvest 27 days after seeding, formulation blank DC 3.16, p<0.1): 3.62 g
